Test results as given in US20060025474A1, “Bisphenyl compounds useful as vitamin D3 receptor agonists” (priority 2004, published 2006).

tested on: ECAC2 mRNA in Caco-2 cells; assay type: cell-based
Protocol: The mRNA Expression Assay of ECAC2 in Caco-2 Cells
The dispersed cells were plated in 48-well plate at a concentration of 6.3×10^4 cells/well and incubated for 4 days at 37° C. The culture medium (Dulbecco's Modified Eagle Medium (D-MEM) without NaHCO3 with 44 mM NaHCO3, 1 mM non-essential amino acids, and 2 mM L-glutamine, 90%; fetal bovine serum, 10%) was then replaced with the same medium containing various concentrations of LG190178 (the compound disclosed in WO00/10958 and the corresponding U.S. Pat. No. 6,218,430 B1) or the compounds of the present invention, and cells were cultured for 1 day at 37° C. The culture medium containing the compounds was changed twice per day.
Total RNA Isolation from Caco-2 Cell
Total RNA was isolated from Caco-2 cell following ABI PRISM™ 6100 Nucleic Acid PrepStation protocol from Applied Biosystems.
Real Time RT-PCR Assay of ECAC2
ECAC2 mRNA expression was determined using TaqMan One-step RT-PCR Master Mix Reagents Kit and PRISM7000 systems from Applied Biosystems.
Primer information and cycle conditions are 1)ECAC2, forward 5′-[…]-3′, reverse 5′-GTCCTCTGTCTGGMGATGA-3′, Taqman probe 5′-[…]-3′, 55 cycles, annealing temperature (Ta)=60° C.; 2)GAPDH, forward 5′-GMGGTGMGGTCGGAGTC-3′, reverse 5′-GMGATGGTGATGGGATTTC-3′, Taqman probe 5′-[…]-3′, 55 cycles, Ta=60° C. ECAC2 mRNA values were normalized for the expression of GAPDH mRNA within each sample.
Comparison of ECAC2 mRNA Value
The EC50 values of ECAC2 mRNA values were analyzed by Emax models. The ECAC2 mRNA ratio was calculated as the ratio of the EC50 value of the compounds to that of LG190178. ECAC2 is a channel-like transporter mediating intestinal calcium absorption. It is described in J Biol Chem. Aug. 6, 1999; 274(32):22739-46 for example.

Going from `CCC(CC)(c1ccc(C#CC(O)(C(F)(F)F)C(F)(F)F)c(C)c1)c1ccc(OC[C@@H](O)CO)c(C)c1` [Example 68, 3-(4-{1-Ethyl-1-[3-methyl4-(4,4,4-trifluoro-3-hydroxy-3-trifluoromethyl-but-1-ynyl)-phenyl]-propyl}-2-methyl-phenoxy)-propane-1,2(S)-diol] to `CCC(CC)(c1ccc(C#CC(O)(C(F)(F)F)C(F)(F)F)c(C)c1)c1ccc(CCC(=O)O)c(C)c1` [Example 106, 3-(4-{1-ethyl-1-[3-methyl-4-(4,4,4-trifluoro-3-hydroxy-3-trifluoromethyl-but-1-ynyl)-phenyl]-propyl}-2-methyl-phenyl)-propionic acid], the “ECaC-2 mRNA induction activity in Caco-2 cells” value (from here on “ECaC-2 mRNA induction activity”) rises from 355% to 399%.

Compared with `CCC(CC)(c1ccc(/C=C/C(O)(C(F)(F)F)C(F)(F)F)c(C)c1)c1ccc(CCC(=O)O)c(C)c1` [Example 107, 3-(4-{1-ethyl-1-[3-methyl-4-((E)-4,4,4-trifluoro-3-hydroxy-3-trifluoromethyl-but-1-enyl)-phenyl]-propyl}-2-methyl-phenyl)-propionic acid], `CCC(CC)(c1ccc(/C=C/C(O)(C(F)(F)F)C(F)(F)F)c(C)c1)c1ccc(OC[C@H](O)CC(=O)O)c(C)c1` [Example 54, (R)-4-(4-{1-ethyl-1-[3-methyl4-((E)-4,4,4-trifluoro-3-hydroxy-3-trifluoromethyl-but-1-enyl)-phenyl]-propyl}-2-methyl-phenoxy)-3-hydroxy-butyric acid] is lower in “ECaC-2 mRNA induction activity” value: 823% for the first, 172% for the second.

Going from `CCC(O)(/C=C/c1ccc(C(CC)(CC)c2ccc(OC[C@H]3CCCC(=O)O3)c(C)c2)cc1C)CC` [Example 190, 6(R)-(4-{1-Ethyl-1-[4-((E)-3-ethyl-3-hydroxy-pent-1-enyl)-3-methyl-phenyl]-propyl}-2-methyl-phenoxymethyl)-tetrahydro-pyran-2-one] to `CCC(O)(/C=C/c1ccc(C(CC)(CC)c2ccc(OCC(=O)CCC(=O)O)c(C)c2)cc1C)CC` [Example 198, (E)-5-(4-{1-Ethyl-1-[4-(3-ethyl-3-hydroxy-pent-1-enyl)-3-methyl-phenyl]-propyl}-2-methyl-phenoxy)-4-oxo-pentanoic acid], the “ECaC-2 mRNA induction activity” value rises from 22% to 271%.

Going from `CCC(CC)(c1ccc(CCC(O)(C(F)(F)F)C(F)(F)F)c(C)c1)c1ccc(OC[C@@H](O)CCC(=O)O)c(C)c1` [Example 31, (S)-5-(4-{1-ethyl-1-[3-methyl-4-(4,4,4-trifluoro-3-hydroxy-3-trifluoromethyl-butyl)-phenyl]-propyl}-2-methyl-phenoxy)-4-hydroxy-pentanoic acid] to `CCC(CC)(c1ccc(/C=C/C(O)(C(F)(F)F)C(F)(F)F)c(C)c1)c1ccc(OC[C@@H](O)CCCC(=O)O)c(C)c1` [Example 56, (S)-6-(4-{1-Ethyl-1-[3-methyl-4-((E)4,4,4-trifluoro-3-hydroxy-3-trifluoromethyl-but-1-enyl)-phenyl]-propyl}-2-methyl-phenoxy)-5-hydroxy-hexanoic acid], the “ECaC-2 mRNA induction activity” value rises from 161% to 276%.

First: CCC(CC)(c1ccc(/C=C/C(O)(C(F)(F)F)C(F)(F)F)c(C)c1)c1ccc(OCCCCc2nnn[nH]2)c(C)c1 [Example 115, (E)-4-[4-(1-ethyl-1-{3-methyl-4-[4-(1 H-tetrazol-5-yl)-butoxy]-phenyl}-propyl)-2-methyl-phenyl]-1,1,1-trifluoro-2-trifluoromethyl-but-3-en-2-ol]
Second: CCC(CC)(c1ccc(/C=C/C(O)(C(F)(F)F)C(F)(F)F)c(C)c1)c1ccc(OC[C@H](O)CCCO)c(C)c1 [Example 154, (R)-5-(4-{1-Ethyl-1-[3-methyl4-((E)-4,4,4-trifluoro-3-hydroxy-3-trifluoromethyl-but-1-enyl)-phenyl]-propyl}-2-methyl-phenoxy)-pentane-1,4-diol]
The “ECaC-2 mRNA induction activity” value of the first is lower: 91% for the first, 1784% for the second.

Compared with `CCC(CC)(c1ccc(C#CC(O)(C(F)(F)F)C(F)(F)F)c(C)c1)c1ccc(OC[C@@H]2CCCC(=O)O2)c(C)c1` [Example 57, (S)-6-(4-{1-ethyl-1-[3-methyl4-(4,4,4-trifluoro-3-hydroxy-3-trifluoromethyl-but-1-ynyl)-phenyl]-propyl}-2-methyl-phenoxymethyl)-tetrahydro-pyran-2-one], `CCC(CC)(c1ccc(/C=C/C(O)(C(F)(F)F)C(F)(F)F)c(C)c1)c1ccc(OC[C@@H]2CCCO2)c(C)c1` [Example 157, (E)4-[4-(1-Ethyl-1-{3-methyl-4-[(S)-1-(tetrahydro-furan-2-yl)methoxy]-phenyl}-propyl)-2-methyl-phenyl]-1,1,1-trifluoro-2-trifluoromethyl-but-3-en-2-ol] is higher in “ECaC-2 mRNA induction activity” value: 24% for the first, 1647% for the second.

Compared with `CCC(CC)(c1ccc(CCC(O)C(C)(C)C)c(C)c1)c1ccc(OC[C@@H](O)CCCC(=O)O)c(C)c1` (stereo partly drawn) [Example 187, 6-(4-{1-Ethyl-1-[4-(3-hydroxy-4,4-dimethyl-pentyl)-3-methyl-phenyl]-propyl}-2-methyl-phenoxy)-5(S)-hydroxy-hexanoic acid], `CCC(CC)(c1ccc(C#CC(O)C(C)(C)C)c(C)c1)c1ccc(OC[C@@H](O)CCC(=O)O)c(C)c1` (stereo partly drawn) [Example 27, 5-(4-{1-ethyl-1-[4-(3-hydroxy-4,4-dimethyl-pent-1-ynyl)-3-methyl-phenyl]-propyl}-2-methyl-phenoxy)-4(S)-hydroxy-pentanoic acid] is lower in “ECaC-2 mRNA induction activity” value: 545% for the first, 114% for the second.

First: CCc1cc(C(CC)(CC)c2ccc(C(=O)N[C@@H](C)C(=O)O)s2)ccc1OCC(C)(O)C(C)(C)C (single isomer, unassigned) [Compound C, reference compound]
Second: CCc1cc(C(CC)(CC)c2ccc(C(=O)N[C@H](C)C(=O)O)s2)ccc1OCC(C)(O)C(C)(C)C (single isomer, unassigned) [Compound B, reference compound]
The “ECaC-2 mRNA induction activity” value of the first is higher: 34% for the first, 15% for the second.

Compared with `CCC(CC)(c1ccc(/C=C/C2(O)CCCCC2)c(C)c1)c1ccc(OC[C@@H](O)CCC(=O)O)c(C)c1` [Example 37, (S)-5-[4-(1-ethyl-1-{4-[(E)-2-(1-hydroxy-cyclohexyl)-vinyl]-3-methyl-phenyl}-propyl)-2-methyl-phenoxy]-4-hydroxy-pentanoic acid], `CCC(CC)(c1ccc(/C=C/C2(O)CCCC2)c(C)c1)c1ccc(OC[C@@H](O)CCC(=O)O)c(C)c1` [Example 35, (S)-5-[4-(1-ethyl-1-{4-[(E)-2-(1-hydroxy-cyclopentyl)-vinyl]-3-methyl-phenyl}-propyl)-2-methyl-phenoxy]-4-hydroxy-pentanoic acid] is lower in “ECaC-2 mRNA induction activity” value: 639% for the first, 538% for the second.

In the case of `CCC(CC)(c1ccc(/C=C/C2(O)CCCCC2)c(C)c1)c1ccc(OCCCCC(=O)O)c(C)c1` [Example 88, 5-[4-(1-ethyl-1-{4-[(E)-2-(1-hydroxy-cyclohexyl)-vinyl]-3-methyl-phenyl}-propyl)-2-methyl-phenoxy]-pentanoic acid], the “ECaC-2 mRNA induction activity” value is reported as 845%.

With `CCC(CC)(c1ccc(/C=C/C(O)(C(F)(F)F)C(F)(F)F)c(C)c1)c1ccc(OCCCCCN)c(C)c1` [Example 125, (E)4-(4-{1-[4-(5-Amino-pentyloxy)-3-methyl-phenyl]-1-ethyl-propyl}-2-methyl-phenyl)-1,1,1-trifluoro-2-trifluoromethyl-but-3-en-2-ol] the “ECaC-2 mRNA induction activity” value was <10%.
